Assay results: patent US20100068204A1, “4-ARYLOXYQUINOLIN-2(1H)-ONES AS MTOR KINASE AND PI3 KINASE INHIBITORS, FOR USE AS ANTI-CANCER AGENTS” (Wyeth, priority 2008, published 2010)
pIC50: −log10 of the molar value.

Experiments:
[1] = biological target: human TOR (FLAG-TOR) (Homo sapiens, UniProt P42345); assay: mTOR enzyme assay (DELFIA format, purified enzyme); type: biochemical; conditions: 800 ng/ml FLAG-TOR, 100 μM ATP, 1.25 μM His6-S6K; read-out: mTOR Kinase IC50
[2] = biological target: PI3Kα (Homo sapiens, UniProt P42336); assay: PI3Kα fluorescence polarization assay; type: biochemical; conditions: 20 μM PIP2, 25 μM ATP
Summary of the method: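 Kinase reaction in 20 mM HEPES pH 7.5, 2 mM MgCl2, 0.05% CHAPS with final 20 μM diC8-PIP2 and 25 μM ATP, 30-60 min at room temperature. Stopped with 10 nM TAMRA-labelled probe plus 2.5 uM GST-murine GRP; fluorescence polarization read after 90-110 minutes.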

[3] = test system: LNCap prostate tumor cells; assay: In vitro cell growth assay (MTS), LNCap; type: cell-based, human; conditions: Homo sapiens, LNCaP, 72 h, three days after drug treatment
Summary of the method: (§1)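 Tumor cells plated ~3000/well; inhibitors in DMSO added one day later (final DMSO 0.25%). After three days of treatment, viable cell density read by MTS conversion, absorbance at 490 nm. Effect expressed relative to untreated control growth.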

[4] = test system: MDA468 breast tumor cells; assay: In vitro cell growth assay (MTS), MDA468; type: cell-based, human; conditions: Homo sapiens, 72 h, three days after drug treatment
Summary of the method: as §1

PI3Kα, sequence (P42336 whole entry, species assumed): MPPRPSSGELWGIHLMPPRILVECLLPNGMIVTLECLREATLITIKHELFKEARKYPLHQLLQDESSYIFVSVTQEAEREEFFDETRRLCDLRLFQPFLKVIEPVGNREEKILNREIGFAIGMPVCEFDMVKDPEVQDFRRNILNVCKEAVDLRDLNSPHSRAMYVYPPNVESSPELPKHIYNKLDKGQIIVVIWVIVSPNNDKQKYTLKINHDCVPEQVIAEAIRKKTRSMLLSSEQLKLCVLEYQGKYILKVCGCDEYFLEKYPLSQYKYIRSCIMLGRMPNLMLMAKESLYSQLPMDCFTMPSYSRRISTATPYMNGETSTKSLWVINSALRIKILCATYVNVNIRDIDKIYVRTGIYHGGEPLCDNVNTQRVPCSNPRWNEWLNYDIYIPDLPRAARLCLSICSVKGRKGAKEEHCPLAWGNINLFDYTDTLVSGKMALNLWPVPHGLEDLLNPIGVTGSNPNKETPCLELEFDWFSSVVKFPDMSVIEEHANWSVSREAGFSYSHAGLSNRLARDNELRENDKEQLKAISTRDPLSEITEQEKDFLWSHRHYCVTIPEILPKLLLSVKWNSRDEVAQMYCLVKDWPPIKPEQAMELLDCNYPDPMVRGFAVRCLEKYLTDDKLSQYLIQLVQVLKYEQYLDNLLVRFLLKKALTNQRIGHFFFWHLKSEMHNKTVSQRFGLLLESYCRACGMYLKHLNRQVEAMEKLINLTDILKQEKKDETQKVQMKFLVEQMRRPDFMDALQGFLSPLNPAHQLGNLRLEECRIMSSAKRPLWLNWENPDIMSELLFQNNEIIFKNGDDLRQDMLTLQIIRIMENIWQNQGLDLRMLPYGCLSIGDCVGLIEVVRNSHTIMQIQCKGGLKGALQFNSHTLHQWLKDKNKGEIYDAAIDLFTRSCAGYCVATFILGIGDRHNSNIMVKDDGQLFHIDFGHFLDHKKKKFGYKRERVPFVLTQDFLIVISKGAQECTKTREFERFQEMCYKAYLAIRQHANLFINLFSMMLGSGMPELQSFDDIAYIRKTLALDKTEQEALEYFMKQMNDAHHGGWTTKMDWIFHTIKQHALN
PI3Kα, sequence (P27986 whole entry partner, species assumed): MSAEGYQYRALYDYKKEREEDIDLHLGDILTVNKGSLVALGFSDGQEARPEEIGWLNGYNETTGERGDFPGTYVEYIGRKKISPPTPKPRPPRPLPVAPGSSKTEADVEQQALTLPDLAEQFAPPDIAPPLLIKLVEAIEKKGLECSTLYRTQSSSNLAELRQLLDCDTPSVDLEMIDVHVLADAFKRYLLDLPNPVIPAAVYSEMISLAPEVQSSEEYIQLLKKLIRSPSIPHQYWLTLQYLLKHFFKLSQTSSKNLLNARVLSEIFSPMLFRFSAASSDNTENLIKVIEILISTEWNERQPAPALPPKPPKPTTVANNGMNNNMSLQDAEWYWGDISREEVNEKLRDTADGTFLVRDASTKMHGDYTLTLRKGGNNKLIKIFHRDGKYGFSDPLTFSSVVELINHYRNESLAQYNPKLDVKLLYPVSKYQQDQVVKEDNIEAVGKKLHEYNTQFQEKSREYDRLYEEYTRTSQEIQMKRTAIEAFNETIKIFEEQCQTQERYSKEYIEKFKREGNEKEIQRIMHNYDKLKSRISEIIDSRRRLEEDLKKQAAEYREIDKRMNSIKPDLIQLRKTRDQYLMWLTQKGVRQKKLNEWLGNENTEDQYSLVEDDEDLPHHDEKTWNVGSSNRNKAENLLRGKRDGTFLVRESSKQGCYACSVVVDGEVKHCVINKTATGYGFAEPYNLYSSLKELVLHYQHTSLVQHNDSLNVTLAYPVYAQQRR

| SMILES | pIC50 [1] | pIC50 [2] | pIC50 [3] | pIC50 [4] |
| --- | --- | --- | --- | --- |
| Nc1ccc(Oc2cc(=O)[nH]c3ccccc23)cc1 | 6.80 | 5.65 | 5.12 | 4.57 |
| CN1CCN(c2cc(-c3ccc(Oc4cc(=O)[nH]c5ccccc45)cc3)ccn2)CC1 | 6.25 | 5.05 | 6.10 | 5.92 |
| O=c1cc(Oc2cccc(NCc3ccc(Cl)nc3)c2)c2ccccc2[nH]1 | 7.22 | 4.89 | 5.46 | 5.10 |
| COc1ccc(Oc2cc(=O)[nH]c3ccccc23)cc1 | 6.27 | 4.96 | < 4.22 | < 4.22 |
| O=c1cc(Oc2cccc(NCc3cnc4ccccc4c3)c2)c2ccccc2[nH]1 | 7.22 | < 5.00 | < 4.22 | 4.22 |
| CN1CCN(CCNc2ccc(-c3cccc(Oc4cc(=O)[nH]c5ccccc45)c3)cc2)CC1 | 6.85 | < 5.00 | 4.92 | 4.64 |
| O=c1cc(Oc2ccccc2)c2cc(-c3cn[nH]c3)ccc2[nH]1 | 4.72 | 6.43 | < 4.22 | < 4.22 |
| O=c1cc(Oc2ccc(Cl)cc2)c2ccccc2[nH]1 | 6.02 | 5.60 | < 4.22 | 4.31 |
| CC(C)(C)OC(=O)n1ccc2cc(CNc3cccc(Oc4cc(=O)[nH]c5ccccc45)c3)cnc21 | 5.35 | 4.93 | 4.94 | 4.22 |
| Cc1n[nH]c(C)c1-c1ccc(Oc2cc(=O)[nH]c3ccccc23)cc1 | 5.73 | 5.16 | < 4.22 | < 4.22 |
| O=c1cc(Oc2ccc(F)cc2)c2ccccc2[nH]1 | 6.22 | 5.80 | 4.74 | < 4.22 |
| O=c1cc(Oc2ccc(-c3cccnc3)cc2)c2ccccc2[nH]1 | 5.76 | 5.48 | 5.67 | 4.78 |
| Cn1ccc2cc(CNc3cccc(Oc4cc(=O)[nH]c5ccccc45)c3)ccc21 | 6.46 | 5.85 | 6.00 | 5.92 |
| O=c1cc(Oc2cccnc2)c2ccccc2[nH]1 [drawing 388] | 5.94 | < 5.00 | < 4.22 | < 4.22 |
| O=c1cc(Oc2cccc(-c3ccc(NCc4ccncc4)cc3)c2)c2ccccc2[nH]1 | 6.15 | 5.28 | < 4.22 | < 4.22 |
| O=c1cc(Oc2cccc(-c3ccoc3)c2)c2ccccc2[nH]1 | 6.46 | 5.36 | 5.21 | 6.52 |
| CC(C)(C)C(=O)Nc1ncccc1CNc1cccc(Oc2cc(=O)[nH]c3ccccc23)c1 | 7.40 | 5.39 | 5.89 | 5.55 |
| O=c1cc(Oc2ccc(-c3ccsc3)cc2)c2ccccc2[nH]1 | < 4.70 | 5.60 | < 4.22 | < 4.22 |
| O=c1cc(Oc2ccc(-c3ccc(F)cc3)cc2)c2ccccc2[nH]1 | 4.80 | 5.02 | < 4.22 | < 4.22 |
| CN1CCN(c2cc(-c3cccc(Oc4cc(=O)[nH]c5ccccc45)c3)ccn2)CC1 | 6.40 | < 5.00 | 5.60 | 5.39 |
| CC(C)OC(=O)Nc1ccc(-c2cccc(Oc3cc(=O)[nH]c4ccccc34)c2)cc1 | 5.87 | < 5.00 | 5.40 | 5.30 |
| O=c1cc(Oc2cccc(NCc3ccccn3)c2)c2ccccc2[nH]1 | 6.82 | 5.46 | 5.24 | 4.92 |
| N#CCc1cccc(Oc2cc(=O)[nH]c3ccccc23)c1 | 6.52 | 5.24 | 5.38 | 4.66 |
| NS(=O)(=O)c1ccc(-c2cccc(Oc3cc(=O)[nH]c4ccccc34)c2)cc1 | 6.59 | < 5.00 | < 4.22 | 4.22 |
| Cc1ccc(Oc2cc(=O)[nH]c3ccccc23)cc1 | 5.94 | 5.38 | 4.74 | < 4.22 |
| Nc1ccc(-c2cccc(Oc3cc(=O)[nH]c4ccccc34)c2)cn1 | 7.05 | 5.05 | 4.64 | 5.71 |
| O=c1cc(Oc2ccc(C3=NCCCN3)cc2)c2ccccc2[nH]1 | 6.24 | < 5.00 | < 4.22 | 4.22 |
| Nc1ccncc1CNc1cccc(Oc2cc(=O)[nH]c3ccccc23)c1 | 6.82 | < 5.00 | 5.10 | 4.94 |
